Columns and labels:
Type in all cases: in vivo
Plutella xylostella = test: Diamond back moth (Plutella xylostella) cabbage leaf dip test, larval mortality; conditions: foliar, 3rd instar larvae, 72 hours after treatment, read-out: mortality in comparison with untreated controls
Procedure: B.2. Diamond back moth (Plutella xylostella)
The active compound is dissolved at the desired concentration in a mixture of 1:1 (vol:vol) distilled water: acetone. Surfactant (Alkamuls® EL 620) is added at a rate of 0.1% (vol/vol). The test solution is prepared at the day of use.
Leaves of cabbage were dipped in test solution and air-dried. Treated leaves were placed in petri dish enlined with moist filter paper and inoculated with ten 3rd instar larvae. Mortality was recorded 72 hours after treatment. Feeding damages were also recorded using a scale of 0-100%.

Bemisia argentifolii = test: Silverleaf whitefly (Bemisia argentifolii) adults, sprayed cotton plant test; conditions: 72 h, 3 days after treatment, read-out: mortality in comparison with untreated controls
Text: B.3 Silverleaf whitefly (Bemisia argentifolii) (adults)
(§1) The active compounds were formulated in cyclohexanone as a 10,000 ppm solution supplied in tubes. The tubes were inserted into an automated electrostatic sprayer equipped with an atomizing nozzle and they served as stock solutions for which lower dilutions were made in 50% acetone:50% water (v/v). A non-ionic surfactant (Kinetic®) was included in the solution at a volume of 0.01% (v/v).
Cotton plants at the cotyledon stage (one plant per pot) were sprayed by an automated electrostatic plant sprayer equipped with an atomizing spray nozzle. The plants were dried in the sprayer fume hood and then removed from the sprayer. Each pot was placed into a plastic cup and about 10 to 12 whitefly adults (approximately 3-5 days old) were introduced. The insects were collected using an aspirator and a nontoxic Tygon® tubing connected to a barrier pipette tip. The tip, containing the collected insects, was then gently inserted into the soil containing the treated plant, allowing insects to crawl out of the tip to reach the foliage for feeding. Cups were covered with a reusable screened lid. […] Mortality was assessed 3 days after treatment, compared to untreated control plants.

Anthonomus grandis = test: Boll weevil (Anthonomus grandis) microtiter plate diet test, egg and larval mortality; conditions: 120 h, egg and larval mortality after 5 days, read-out: mortality in comparison with untreated controls
Procedure: B.1. Boll weevil (Anthonomus grandis)
For evaluating control of boll weevil (Anthonomus grandis) the test unit consisted of 96-wellmicrotiter plates containing an insect diet and 5-10 A. grandis eggs.
The compounds were formulated using a solution containing 75% v/v water and 25% v/v DMSO. Different concentrations of formulated compounds were sprayed onto the insect diet at 5 μl, using a custom-built micro atomizer, at two replications.
After application, microtiter plates were incubated at about 25+1° C. and about 75+5% relative humidity for 5 days. Egg and larval mortality was then visually assessed.

Spodoptera eridania = test: Southern armyworm (Spodoptera eridania) 2nd instar larvae, sprayed lima bean plant test; conditions: 96 h, 4 days after treatment, read-out: mortality in comparison with untreated controls
Procedure: B.4. Southern armyworm (Spodoptera eridania), 2nd instar larvae
as §1, with “nonionic” for “non-ionic”
Lima bean plants (variety Sieva) were grown 2 plants to a pot and selected for treatment at the 1st true leaf stage. Test solutions were sprayed onto the foliage by an automated electrostatic plant sprayer equipped with an atomizing spray nozzle. The plants were dried in the sprayer fume hood and then removed from the sprayer. Each pot was placed into perforated plastic bags with a zip closure. About 10 to 11 armyworm larvae were placed into the bag and the bags zipped closed. Test plants were maintained in a growth room at about 25° C. and about 20-40% relative humidity for 4 days, avoiding direct exposure to fluorescent light (24 hour photoperiod) to prevent trapping of heat inside the bags. Mortality and reduced feeding were assessed 4 days after treatment, compared to untreated control plants.

CO/N=C(\C)CC1CSc2n(C)c(=O)c(-c3ccccc3)c([O-])[n+]21 (stereo not shown) [C-1, 3-[(2E)-2-methoxyiminopropyl]-8-methyl-7-oxo-6-phenyl-2,3-dihydrothiazolo[3,2-a]pyrimidin-4-ium-5-olate]
> 75%: mortality at 500 ppm (Plutella xylostella) | mortality at 500 ppm (Bemisia argentifolii) | mortality at 800 ppm (Anthonomus grandis) | mortality at 500 ppm (Spodoptera eridania)

Source: patent US20230031024A1, “SUBSTITUTED PYRIMIDINIUM COMPOUNDS FOR COMBATING ANIMAL PESTS” (BASF SE, priority 2018, published 2023)
